Assay results as given in US20230219965A1 (KSQ Therapeutics, Inc., priority 2020, published 2023).
Read-outs that look alike come from different tables or passages of the source.

Columns and labels:
[1] = Liver microsomal metabolic stability, human liver microsomes (HLM); settings: human, liver microsomes
[2] = Liver microsomal metabolic stability, rat liver microsomes (RLM); settings: rat, liver microsomes, t1/2 (min) in RLM, 1 μM compound, 1 mg/mL microsomes, NADPH
[3] = ADME solubility determination in PBS at pH 2.0 and pH 7.4; type: physicochemical; settings: phosphate buffered saline, 25 °C, thermodynamic from solid
How it was run: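 Solubility was read by LC-MS/MS on centrifuged supernatants, calibrated to a known-concentration standard and corrected for dilution. Compound, dried down from 10 mM DMSO stock, was equilibrated 24 h at 25° C with shaking in PBS at pH 2.0 or pH 7.4.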

[4] = test system: Ub-PCNA levels in the nucleus of ES2 cells (USP1 activity); experiment: ES2 Ub-PCNA immunofluorescence (IF) assay; type: cell-based; settings: Homo sapiens, ES-2; ES2 cells, 3 hours, Ub-PCNA immunofluorescence; read-out: USP1 IC50 (Ub-PCNA)
How it was run: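 AC50 derived from percent Ub-PCNA-positive nuclei, positivity set by a 95% cutoff from untreated-well intensities. Readout by imaging immunofluorescence (anti-Ub-PCNA, DAPI nuclear mask) after methanol fixation. Compound exposure: 3 h at 37° C, 0.3% DMSO final, on cells plated overnight.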

USP1/UAF1 enzyme = USP1/UAF1 enzyme (Homo sapiens, UniProt O94782); experiment: USP1/UAF1 deubiquitination assay (ubiquitin-rhodamine 110 substrate); type: biochemical; settings: read-out: USP1 IC50 (Ub-Rho)
How it was run: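 Cleavage of 150 nM ubiquitin-rhodamine 110 by 0.05 nM USP1/UAF1 was followed as fluorescence (Ex480/Em540, kinetic, 30 min) in Tris-HCl pH 7.8 buffer with EDTA, BSA, DTT and Tween-20. Compounds, top 10 μM, were preincubated with enzyme 10 min; % inhibition against no-enzyme and DMSO wells gave four-parameter IC50s.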

[5] = pH 2, aqueous buffer, PBS pH 2.0, 25° C., read-out: Solubility at pH 2.0
[6] = pH 7.4, aqueous buffer, PBS pH 7.4, 25° C., read-out: Solubility at pH 7.4

Sequence of USP1/UAF1 enzyme (O94782 whole entry): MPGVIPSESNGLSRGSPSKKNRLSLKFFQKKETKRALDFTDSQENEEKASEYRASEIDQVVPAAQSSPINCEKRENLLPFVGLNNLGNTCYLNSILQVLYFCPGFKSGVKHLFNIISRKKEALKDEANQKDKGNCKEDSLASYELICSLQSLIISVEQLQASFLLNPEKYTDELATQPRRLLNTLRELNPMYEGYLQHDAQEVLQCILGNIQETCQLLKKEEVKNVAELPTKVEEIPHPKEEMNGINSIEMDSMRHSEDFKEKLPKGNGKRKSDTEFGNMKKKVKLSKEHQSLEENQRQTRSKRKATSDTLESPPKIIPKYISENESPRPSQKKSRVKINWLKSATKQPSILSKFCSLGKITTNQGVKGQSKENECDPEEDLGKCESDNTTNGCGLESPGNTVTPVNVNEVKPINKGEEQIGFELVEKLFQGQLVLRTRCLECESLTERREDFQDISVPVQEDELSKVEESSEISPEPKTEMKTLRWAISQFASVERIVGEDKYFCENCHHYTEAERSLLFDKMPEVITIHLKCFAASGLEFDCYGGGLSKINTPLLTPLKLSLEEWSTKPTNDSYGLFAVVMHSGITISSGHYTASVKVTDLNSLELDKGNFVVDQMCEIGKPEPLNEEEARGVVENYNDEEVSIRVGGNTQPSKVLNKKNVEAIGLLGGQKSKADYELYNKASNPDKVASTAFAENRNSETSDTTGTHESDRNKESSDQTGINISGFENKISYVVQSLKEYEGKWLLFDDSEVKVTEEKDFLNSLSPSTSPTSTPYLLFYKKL
Sequence of USP1/UAF1 enzyme (Q8TAF3 whole entry partner): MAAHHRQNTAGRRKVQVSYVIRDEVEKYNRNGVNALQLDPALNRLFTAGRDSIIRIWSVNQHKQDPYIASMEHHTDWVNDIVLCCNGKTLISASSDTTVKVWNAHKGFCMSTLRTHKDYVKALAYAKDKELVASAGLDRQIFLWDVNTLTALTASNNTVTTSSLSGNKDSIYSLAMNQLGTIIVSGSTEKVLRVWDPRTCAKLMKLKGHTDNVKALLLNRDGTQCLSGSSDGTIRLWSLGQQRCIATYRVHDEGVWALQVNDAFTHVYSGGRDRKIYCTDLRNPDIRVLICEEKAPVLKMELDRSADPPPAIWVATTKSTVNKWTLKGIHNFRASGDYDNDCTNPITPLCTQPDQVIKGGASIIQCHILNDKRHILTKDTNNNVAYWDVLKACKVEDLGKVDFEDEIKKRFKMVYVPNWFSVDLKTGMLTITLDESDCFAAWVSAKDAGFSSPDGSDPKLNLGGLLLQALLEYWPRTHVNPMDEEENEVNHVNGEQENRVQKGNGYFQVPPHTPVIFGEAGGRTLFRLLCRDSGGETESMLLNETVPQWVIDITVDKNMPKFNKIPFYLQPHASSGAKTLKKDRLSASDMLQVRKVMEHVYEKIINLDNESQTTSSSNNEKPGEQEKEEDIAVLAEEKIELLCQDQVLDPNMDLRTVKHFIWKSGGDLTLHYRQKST

Work on COc1ncnc(C2CC2)c1-c1nc2n(n1)CCC(=O)N2C(C)c1ccc(-c2nc(C(F)(F)F)cn2C(C)C)cc1 (stereo not drawn) [Example 169] yielded a half-life at 1 μM [1] greater than 25 min, a half-life at 1 μM [2] greater than 25 min and a solubility at 24 h [3, 5] of no less than 10 µM. For the same compound, the solubility at 24 h [3, 6] was less than 10 µM, the IC50 [4] was 100 to 500 nM and the IC50 (USP1/UAF1 enzyme) was less than 100 nM.
Compound COc1ncnc(C2CC2)c1-c1nc2n(n1)CCC(=O)N2Cc1ccc(-c2nc(C(F)(F)F)cn2C)c(F)c1 [Example 170] has a half-life at 1 μM [1] greater than 25 min, a half-life at 1 μM [2] greater than 25 min and a solubility at 24 h [3, 5] of no less than 10 µM. The solubility at 24 h [3, 6] was no less than 10 µM, the IC50 [4] was less than 100 nM and the IC50 (USP1/UAF1 enzyme) was less than 100 nM.
Work on CCn1cc(C(F)(F)F)nc1-c1ccc(CN2C(=O)CCn3nc(-c4c(OC)ncnc4C4CC4)nc32)cc1 [Example 171] yielded a half-life at 1 μM [1] greater than 25 min, a half-life at 1 μM [2] greater than 25 min and a solubility at 24 h [3, 5] of no less than 10 µM. The solubility at 24 h [3, 6] was no less than 10 µM, the IC50 [4] was less than 100 nM and the IC50 (USP1/UAF1 enzyme) was less than 100 nM.
COc1ncnc(C2CC2)c1-c1nc2n(n1)CCC(=O)N2Cc1ccc(-c2nc(C(F)(F)F)cn2C(C)C)c(Cl)c1 [Example 172] showed a half-life at 1 μM [1] greater than 25 min, a half-life at 1 μM [2] greater than 25 min and a solubility at 24 h [3, 5] of no less than 10 µM. The solubility at 24 h [3, 6] was no less than 10 µM, the IC50 [4] was 100 to 500 nM and the IC50 (USP1/UAF1 enzyme) was less than 100 nM.
With COc1ncnc(C2CC2)c1-c1nc2n(n1)CCC(=O)N2[C@@H](C)c1ccc(-c2nc(C(F)(F)F)cn2C(C)C)c(F)c1 [Example 173] the half-life at 1 μM [1] was greater than 25 min, the half-life at 1 μM [2] was greater than 25 min and the solubility at 24 h [3, 5] was no less than 10 µM. The solubility at 24 h [3, 6] was no less than 10 µM, the IC50 [4] was less than 100 nM and the IC50 (USP1/UAF1 enzyme) was less than 100 nM.
With COc1ncnc(C2CC2)c1-c1nc2n(n1)CCC(=O)N2[C@H](C)c1ccc(-c2nc(C(F)(F)F)cn2C(C)C)c(F)c1 [Example 174] the half-life at 1 μM [1] was greater than 25 min, the half-life at 1 μM [2] was greater than 25 min and the solubility at 24 h [3, 5] was no less than 10 µM. The solubility at 24 h [3, 6] was no less than 10 µM, the IC50 [4] was less than 100 nM and the IC50 (USP1/UAF1 enzyme) was less than 100 nM.
With CCn1cc(C(F)(F)F)nc1-c1ccc(CN2C(=O)CCn3nc(-c4c(OC)ncnc4C4CC4)nc32)cc1Cl [Example 175] the half-life at 1 μM [1] was greater than 25 min, the half-life at 1 μM [2] was greater than 25 min and the solubility at 24 h [3, 5] was no less than 10 µM. It also gave a solubility at 24 h [3, 6] of no less than 10 µM, an IC50 [4] of less than 100 nM and an IC50 (USP1/UAF1 enzyme) of less than 100 nM.
For CCn1cc(C(F)(F)F)nc1-c1c(F)cc(CN2C(=O)CCn3nc(-c4c(OC)ncnc4C4CC4)nc32)cc1OC [Example 176], the half-life at 1 μM [1] was greater than 25 min, the half-life at 1 μM [2] was greater than 25 min and the solubility at 24 h [3, 5] was no less than 10 µM. The solubility at 24 h [3, 6] was no less than 10 µM, the IC50 [4] was less than 100 nM and the IC50 (USP1/UAF1 enzyme) was less than 100 nM.
CC(C)n1cc(C(F)(F)F)nc1-c1ccc([C@H](C)N2C(=O)CCn3nc(-c4c(Cl)cnn4C(C)C)nc32)cc1 [Example 177] gave a half-life at 1 μM [1] of less than 25 min, a half-life at 1 μM [2] greater than 25 min and a solubility at 24 h [3, 5] of less than 10 µM. It also gave a solubility at 24 h [3, 6] of less than 10 µM, an IC50 [4] of less than 100 nM and an IC50 (USP1/UAF1 enzyme) of less than 100 nM.
For CC(C)n1cc(C(F)(F)F)nc1-c1ccc([C@@H](C)N2C(=O)CCn3nc(-c4c(Cl)cnn4C(C)C)nc32)cc1 [Example 178], the half-life at 1 μM [1] was less than 25 min, the half-life at 1 μM [2] was less than 25 min and the solubility at 24 h [3, 5] was no less than 10 µM. It also gave a solubility at 24 h [3, 6] of less than 10 µM, an IC50 [4] of less than 100 nM and an IC50 (USP1/UAF1 enzyme) of less than 100 nM.
CCn1cc(C(F)(F)F)nc1-c1ccc([C@@H](C)N2C(=O)CCn3nc(-c4c(Cl)cnn4C(C)C)nc32)cc1OC [Example 180] showed a half-life at 1 μM [1] of less than 25 min, a half-life at 1 μM [2] of less than 25 min and a solubility at 24 h [3, 5] of less than 10 µM. For the same compound, the solubility at 24 h [3, 6] was less than 10 µM, the IC50 [4] was 100 to 500 nM and the IC50 (USP1/UAF1 enzyme) was less than 100 nM.
With CCn1cc(C(F)(F)F)nc1-c1ccc([C@H](C)N2C(=O)CCn3nc(-c4c(Cl)cnn4C(C)C)nc32)cc1F [Example 181] the half-life at 1 μM [1] was less than 25 min, the half-life at 1 μM [2] was greater than 25 min and the solubility at 24 h [3, 5] was less than 10 µM. The solubility at 24 h [3, 6] was less than 10 µM, the IC50 [4] was less than 100 nM and the IC50 (USP1/UAF1 enzyme) was less than 100 nM.
Compound CCn1cc(C(F)(F)F)nc1-c1ccc([C@@H](C)N2C(=O)CCn3nc(-c4c(Cl)cnn4C(C)C)nc32)cc1F [Example 182] has a half-life at 1 μM [1] of less than 25 min, a half-life at 1 μM [2] of less than 25 min and a solubility at 24 h [3, 5] of less than 10 µM. It also gave a solubility at 24 h [3, 6] of less than 10 µM, an IC50 [4] of less than 100 nM and an IC50 (USP1/UAF1 enzyme) of less than 100 nM.
